Source: article PMC4745983 (Frontiers in Cell and Developmental Biology, 2016)
≈ marks a conversion by molar mass, not a printed value. Read-outs that look alike come from different tables or passages of the source. Marks after values point to notes of the source that are not given here. No end group written: not given here.

Key:
E. coli CECT101 = format: cell-based, Escherichia coli; settings: for Activity against E. coli CECT101 relative to nisin: comparison of MIC values / growth curves (Table 6, Figure 3)
Protocol: (§1) L. lactis strains were cultured in M17 broth supplemented with 0.5% (w/v) glucose (GM17) for genetic manipulation or in minimal expression medium (MEM) for protein expression at 30°C (Rink et al., [2005]). E. coli CECT101 was grown in Luria-Bertani broth aerated by shaking (200 rpm) at 37°C.
(§2) The indicator strains were first cultured until OD (600 nm) reached 0.5. When testing the MIC value, the culture was diluted 1000 times with the appropriate medium. All the tests were performed with a temperature controlled plate reader (Tecan infinite F200, Tecan Group AG) in a 96-well plate (Greiner Bio-one). The peptides were first diluted in gradient with medium and then mixed with diluted indicator strains. The final concentration of the peptides ranged from 0.00625 to 0.8 μM against L. lactis MG1363 and from 0.25 to 32 μM against E. coli CECT101 in 100 μl volume. The plate was incubated at 30°C or 37°C for 18 h depending on the indicator strain being L. lactis or E. coli, respectively. OD (600 nm) was checked every 30 min. For E. coli, 2 min of shaking was performed before every check. When testing the activity of nisin against E. coli in the presence of EDTA, an EDTA solution was prepared and added to a final concentration of 50, 110, or 250 μM. The minimal concentration of peptide causing no observed growth of indicator strains was considered as the MIC value.

L. lactis MG1363 = format: cell-based, Lactococcus lactis; settings: for MIC value, L. lactis MG1363: MG1363, 18 h
Protocol: as §1, §2

E. coli BL21 AI = settings: indicator strain E. coli BL21 AI, cited from earlier work
Excerpt: To increase the activity of nisin against Gram-negative bacteria, both the inhibition activity and trans-outer membrane activity are important. When the first three rings of nisin are intact, the lipid II binding activity is stable. Retaining the pore formation activity is crucial. By further variation of the linker between the nisin part and the tail or searching for more effic ...

[1] = supernatant of L. lactis NZ9000 expression culture in MEM medium, mixed with supernatant containing NisP; settings: Lactococcus lactis, 30°C, up to 3 h induction; 1 h with NisP
E. coli ATCC 25922 = settings: indicator strain E. coli ATCC 25922, [2013], cited from earlier work
Excerpt: Table 1 List of selected peptides with anti-Gram-negative bacteria activity. | column: MIC(μM)

[2] = supernatant of L. lactis NZ9000 expression culture in MEM medium; settings: Lactococcus lactis, 30°C, up to 3 h induction

## C=C1NC(=O)[C@H]([C@@H](C)CC)NC(=O)[C@H](NC(=O)/C(=C/C)NC(=O)[C@@H](N)[C@@H](C)CC)CSC[C@@H](C(=O)N[C@H]2C(=O)N3CCC[C@H]3C(=O)NCC(=O)N[C@H](C(=O)N[C@@H](CCCCN)C(=O)N[C@H]3C(=O)NCC(=O)N[C@@H](C)C(=O)N[C@@H](CC(C)C)C(=O)N[C@@H](CCSC)C(=O)NCC(=O)N[C@H](C(=O)N[C@@H](CC(N)=O)C(=O)N[C@@H](CCSC)C(=O)N[C@@H](CCCCN)C(=O)N[C@H]4C(=O)N[C@@H](C)C(=O)N[C@H]5C(=O)N[C@@H](CS[C@H]4C)C(=O)N[C@@H](Cc4c[nH]cn4)C(=O)N[C@H](C(=O)N[C@@H](CO)C(=O)NCC(=O)N4CCC[C@H]4C(=O)N[C@@H](CCCNC(=N)N)C(=O)N4CCC[C@H]4C(=O)N4CCC[C@H]4C(=O)N[C@@H](Cc4c[nH]cn4)C(=O)N4CCC[C@H]4C(=O)N[C@@H](CCCNC(=N)N)C(=O)N[C@@H](CC(C)C)C(=O)O)CS[C@H]5C)CS[C@H]3C)CS[C@H]2C)NC(=O)[C@H](CC(C)C)NC1=O [GNT16SG]
E. coli CECT101
  Activity against E. coli CECT101 relative to nisin: lower net activity than nisin
E. coli CECT101; from MIC values
  Activity against E. coli relative to GNT16: more than four times lower activity
L. lactis MG1363; from MIC values
  Activity against L. lactis relative to GNT16-3rings (times higher): 2.5 times

## VDKPPYLPRPRPPRRIYNR-NH2 [Oncocin]
E. coli BL21 AI; ref Knappe et al., [2010]
  MIC: 1.7^b μM

## C=C1NC(=O)[C@H]([C@@H](C)CC)NC(=O)[C@H](NC(=O)/C(=C/C)NC(=O)[C@@H](N)[C@@H](C)CC)CSC[C@@H](C(=O)N[C@H]2C(=O)N3CCC[C@H]3C(=O)NCC(=O)N[C@H](C(=O)N[C@@H](CCCCN)C(=O)N[C@H]3C(=O)NCC(=O)N[C@@H](C)C(=O)N[C@@H](CC(C)C)C(=O)N[C@@H](CCSC)C(=O)NCC(=O)N[C@H](C(=O)N[C@@H](CC(N)=O)C(=O)N[C@@H](CCSC)C(=O)N[C@@H](CCCCN)C(=O)N4CCC[C@H]4C(=O)N[C@@H](CCCNC(=N)N)C(=O)N4CCC[C@H]4C(=O)N4CCC[C@H]4C(=O)N[C@@H](Cc4c[nH]cn4)C(=O)N4CCC[C@H]4C(=O)N[C@@H](CCCNC(=N)N)C(=O)N[C@@H](CC(C)C)C(=O)O)CS[C@H]3C)CS[C@H]2C)NC(=O)[C@H](CC(C)C)NC1=O [GNT16-3rings]
E. coli CECT101; CECT101, 18 h
  MIC value, E. coli CECT101: >32 µM
E. coli CECT101
  Activity against E. coli CECT101 relative to nisin: lower net activity than nisin
L. lactis MG1363
  MIC value, L. lactis MG1363: 1 µM (≈ 3.09 µg/mL)

## C=C1NC(=O)[C@H]([C@@H](C)CC)NC(=O)[C@H](NC(=O)/C(=C/C)NC(=O)[C@@H](N)[C@@H](C)CC)CSC[C@@H](C(=O)N[C@H]2C(=O)N3CCC[C@H]3C(=O)NCC(=O)N[C@H](C(=O)N[C@@H](CCCCN)C(=O)N[C@H]3C(=O)NCC(=O)N[C@@H](C)C(=O)N[C@@H](CC(C)C)C(=O)N[C@@H](CCSC)C(=O)NCC(=O)N[C@H](C(=O)N[C@@H](CC(N)=O)C(=O)N[C@@H](CCSC)C(=O)N[C@@H](CCCCN)C(=O)N4CCC[C@H]4C(=O)N4CCC[C@H]4C(=O)N[C@@H](Cc4ccc(O)cc4)C(=O)N[C@@H](CC(C)C)C(=O)N4CCC[C@H]4C(=O)N[C@@H](CCCNC(=N)N)C(=O)N4CCC[C@H]4C(=O)N[C@@H](CCCNC(=N)N)C(=O)N4CCC[C@H]4C(=O)N4CCC[C@H]4C(=O)N[C@@H](CCCNC(=N)N)C(=O)N[C@@H](CCCNC(=N)N)C(=O)N[C@H](C(=O)N[C@@H](Cc4ccc(O)cc4)C(=O)N[C@@H](CC(N)=O)C(=O)N[C@@H](CCCNC(=N)N)C(=O)O)[C@@H](C)CC)CS[C@H]3C)CS[C@H]2C)NC(=O)[C@H](CC(C)C)NC1=O [GNT6]
E. coli CECT101; CECT101, 18 h
  MIC value, E. coli CECT101: >16 µM
E. coli CECT101
  Activity against E. coli CECT101 relative to nisin: lower net activity than nisin

## GNNRPVYIPQPRPPHPRL [Apidaecin 1b]
E. coli BL21 AI; ref Berthold et al., [2013]
  MIC: 0.5^b μM
E. coli BL21 AI; ref Berthold et al., [2013], listed as apidaecin 1b
  MIC: 0.5 µM

## Ring ABC + NMKPRPRPPRRIYNR
[1]
  cleaved bond: N-R and Y-N and I-Y and R-I

## KKLFKKILKYL-NH2 [R-BP100]
E. coli ATCC 25922; ref Torcato et al.
  MIC: 0.9 ± 0.4^f μM

## GIGKHVGKALKGLKGLLKGLGEC-NH2 [ADP2]
E. coli ATCC 25922; ref Iliæ et al.
  MIC: 1^f μM

## Ring ABC + NGKPRPYSPRPTSHPRPIRV
[1]
  cleaved bond: P-I

## C=C1NC(=O)[C@H]([C@@H](C)CC)NC(=O)[C@H](NC(=O)/C(=C/C)NC(=O)[C@@H](N)[C@@H](C)CC)CSC[C@@H](C(=O)N[C@H]2C(=O)N3CCC[C@H]3C(=O)NCC(=O)N[C@H](C(=O)N[C@@H](CCCCN)C(=O)N[C@H]3C(=O)NCC(=O)N[C@@H](C)C(=O)N[C@@H](CC(C)C)C(=O)N[C@@H](CCSC)C(=O)NCC(=O)N[C@H](C(=O)N[C@@H](CC(N)=O)C(=O)N[C@@H](CCSC)C(=O)N[C@@H](CCCCN)C(=O)N[C@H](C(=O)N[C@@H](Cc4ccc(O)cc4)C(=O)N[C@H](C(=O)N4CCC[C@H]4C(=O)N[C@@H](CCCNC(=N)N)C(=O)N4CCC[C@H]4C(=O)N[C@@H](CCCNC(=N)N)C(=O)N4CCC[C@H]4C(=O)N4CCC[C@H]4C(=O)N[C@@H](Cc4c[nH]cn4)C(=O)N4CCC[C@H]4C(=O)N[C@@H](CCCNC(=N)N)C(=O)O)[C@@H](C)CC)C(C)C)CS[C@H]3C)CS[C@H]2C)NC(=O)[C@H](CC(C)C)NC1=O [GNT1]
E. coli CECT101; CECT101, 18 h
  MIC value, E. coli CECT101: >16 µM
E. coli CECT101
  Activity against E. coli CECT101 relative to nisin: lower net activity than nisin
L. lactis MG1363
  MIC value, L. lactis MG1363: 1 µM (≈ 3.61 µg/mL)

## Ring ABC + NMKPPYLPRPRPPRRIYNR
[1]
  cleaved bond: Y-N and I-Y

## Gu-ONNRPVYIPRPRPPHPRL-NH2 [Api 88, derivative of apidaecin 1b with increased positive charges and an amidated C-terminus]
E. coli BL21 AI; ref Czihal et al., [2012]
  MIC: 0.2^b μM

## Nisin + GKHVGKALKGLKGLLK
[2]
  cleaved bond: Val32-Dha33

## Ring ABC + NGKPRPYSPRPTSHPRPIRV (bicyclic or more) [GNT8, nisin Ring ABC + drosocin tail]
E. coli CECT101; Luria-Bertani broth, 96-well plate, 100 μl, 37°C, 18 h, OD600 every 30 min, peptide 0.25-32 μM, lowest concentration with no observed growth, repeated at least two times
  MIC value, E. coli CECT101: >16 µM
E. coli CECT101
  Activity against E. coli CECT101 relative to nisin: lower net activity than nisin

## C=C1NC(=O)[C@H]([C@@H](C)CC)NC(=O)[C@H](NC(=O)/C(=C/C)NC(=O)[C@@H](N)[C@@H](C)CC)CSC[C@@H](C(=O)N[C@H]2C(=O)N3CCC[C@H]3C(=O)NCC(=O)N[C@H](C(=O)N[C@@H](CCCCN)C(=O)N[C@H]3C(=O)NCC(=O)N[C@@H](C)C(=O)N[C@@H](CC(C)C)C(=O)N[C@@H](CCSC)C(=O)NCC(=O)N[C@H](C(=O)N[C@@H](CC(N)=O)C(=O)N[C@@H](CCSC)C(=O)N[C@@H](CCCCN)C(=O)N4CCC[C@H]4C(=O)N[C@@H](CCCNC(=N)N)C(=O)N4CCC[C@H]4C(=O)N[C@@H](CCCNC(=N)N)C(=O)N4CCC[C@H]4C(=O)N4CCC[C@H]4C(=O)N[C@@H](CCCNC(=N)N)C(=O)N[C@@H](CCCNC(=N)N)C(=O)N[C@H](C(=O)N[C@@H](Cc4ccc(O)cc4)C(=O)N[C@@H](CC(N)=O)C(=O)N[C@@H](CCCNC(=N)N)C(=O)O)[C@@H](C)CC)CS[C@H]3C)CS[C@H]2C)NC(=O)[C@H](CC(C)C)NC1=O [GNT7]
E. coli CECT101; CECT101, 18 h
  MIC value, E. coli CECT101: >16 µM
E. coli CECT101
  Activity against E. coli CECT101 relative to nisin: lower net activity than nisin
L. lactis MG1363
  MIC value, L. lactis MG1363: 0.2 µM (≈ 0.74 µg/mL)
L. lactis MG1363; from MIC values
  Activity against L. lactis relative to GNT16: equal activity as GNT16
